Results from publication PMC12621202, “RTx-303, an Orally Bioavailable Polθ Polymerase Inhibitor That Potentiates PARP Inhibitors in BRCA Mutant Tumors” (Journal of Medicinal Chemistry, 2025).

Columns and labels:
[1] = Mouse plasma stability; type: in vitro ADME; details: CD1, pH 7.4, read-out: T1/2 mouse plasma
Procedure: Mouse Plasma and PBS Stability. The stability of compounds at 1 μM were tested in duplicate at 37 °C in 500 μL of either 2.5% DMSO/97.5% mouse plasma (Innovative Research IGMSCD1PLANH50 ML; pooled plasma from CD1 mice; sodium heparin as anticoagulant; pH adjusted to 7.4) or 2.5% DMSO/97.5% phosphate-buffered saline (pH = 7.4 PBS: 136.9 mM NaCl; 2.68 mM KCl; 8.1 mM Na2HPO4; 1.47 mM KH2PO4; 0.9 mM CaCl2; 0.49 mM MgCl2). At 0, 30, 90, and 180 min time points, 50 μL aliquots were transferred to wells in a 96-well plate on ice containing 200 μL of ACN:water 85:15 containing the internal standard. After centrifugation (10 min; 4000 × g), supernatants were analyzed by LC/MS as described. Standard curves (0–1000 nM) were generated in PBS and plasma. Data were fit to a one-phase decay equation using GraphPad Prism 5.04 to generate T1/2 values.

[2] = LogP; type: physicochemical; details: method not described
From the text: 1 Dimethyl and Monomethyl Side-Chains Improve Metabolic Stability and Cellular Potency | column: LogP

[3] = system: HCT116 BRCA2^-/-; assay: FITC active Caspase-3 apoptosis assay; type: cell-based, human
[4] = system: HRD cells versus HR-proficient cells; assay: Colony survival in HRD and HR-proficient cell lines; type: cell-based; details: IC50 bar plots, values not given
Procedure: Colony survival assays were performed on 24-well plates. 800 cells/well of HCT, DLD1- BRCA2 −/–, PALB2 −/–, MEF BRCA1 […], PEO1, SNU-601, SKOV3- BRCA2 −/–, OVCAR8 cells and 200 cells/well of HCT, DLD1, MEF, SKOV3 wildtype cells were plated. For MDA pair, 500 cells/well of MDA436 and 100 cells of MDA231 were plated. Cells were treated with the compound 24 h after plating and the medium was replaced every two or 3 days until the colonies were ready for staining. Colonies were typically ready for staining in 10–12 days. For staining: Medium was removed from plates, and cells were rinsed with PBS. Fixation was carried out with Water:Ethanol:Acetic acid (5:4:1) for 30 min followed by staining of colonies with 0.5% crystal violet in Water:Ethanol (3:2) for 2 h at room temperature. The plates were rinsed with water and left for drying overnight at room temperature. Colonies were then counted manually, and response curves are shown as mean colony formation ± SEM. IC50 was calculated with GraphPad Prism using nonlinear regression analysis, inhibitor vs response (variable slope) equation.

[5] = system: HRD cell lines (MDA-MB-436, PE01 and other BRCA mutant cells); assay: Synergy with PARPi (Combenefit); type: cell-based, human
Procedure: […] Each sample had three replicates. The medium was replaced every 2 days. Cell viability was assessed after 5-day treatment by the WST-1 assay (Sigma, Cat. # 5015944001) according to the manufacturer instructions.

[6] = system: other recombinant DNA polymerases, including the related A-family Polγ; assay: DNA polymerase selectivity (primer extension); type: biochemical; details: in vitro primer extension
From the text: A. Denaturing gel showing primer extension by the indicated DNA polymerases in the presence or absence of RT x-303. B. Bar plot showing % relative extension by the indicated DNA polymerases in the presence and absence of RT x-303.
(also on this page, place not known: Extension to DMSO control RTx-303. % relative RTx-303.)
(1 picture or pasted object on this page, not shown here)

[7] = Hepatocyte stability; type: in vitro ADME; details: rat (SD) hepatocytes, male; read-out: Rat (SD)^+ (T1/2 min)
[8] = Hepatocyte stability; type: in vitro ADME; details: dog (Beagle) hepatocytes, male; read-out: Dog (Beagle) ^+ (T1/2 min)
[9] = Mouse plasma protein binding; type: in vitro ADME
From the text: 4 In Vitro ADME and Potency of Chiral Derivatives | column: Mouse plasma protein binding (% free)

[10] = Rat plasma protein binding; type: in vitro ADME
From the text: 5 Pharmacokinetics of Pure Enantiomers and Equipotent Metabolites | column: Avg. free unbound exposure (nM/hr) / Rat plasma protein binding (% free)

[11] = Tolerability, mouse body weight; type: in vivo, BALB/c mice; details: 200 mg/kg, bid, mice
Procedure: Fema le , Ve hicl e, - mg/k g, p.o., BID x 7DFemale, vehicle (n=2)
Fema le , RTx- 30 3, 15 0mg/k g, p.o., BI D x 7 DFemale, RTx-303, 150 mg/kg (po,bid)(n=2)
Fema le , RTx- 30 3, 20 0mg/k g, p.o., BI D x 7 D
Female, RTx-303, 200 mg/kg (po,bid)(n=2)
30 Male , V ehic le, -mg/ kg, p.o. , BID x 7D
Male , RTx-30 3, 15 0mg/k g, p.o., BID x 7DMale, RTx-303, 150 mg/kg (po,bid)(n=2)
20 Male , RTx-30 3, 20 0mg/k g, p.o., BID x 7DMale, RTx-303, 200 mg/kg (po,bid)(n=2)
Days after the start of treatment
Supplementary Fig. 12 Effect of RTx-303 on mouse body weight.
Scatter plot showing % body weight change following administration of the indicated
concentrations of RTx-303 in male and female BALB/c mice. Data represent mean (n=2).

[12] = Hepatocyte stability; type: in vitro ADME; details: cynomolgus monkey; monkey hepatocytes, male; read-out: Monkey (Cynomologous) ^+ (T1/2 min)

Compound: [2H]C([2H])([2H])N(C(=O)Oc1c(N2CCN(CC(O)CNC)C2=O)cc(C(F)(F)F)cc1C(F)(F)F)c1ccc(F)cc1 (stereo not shown) [RTx-283, 2-(3-(2-Hydroxy-3-(methylamino)propyl)-2-oxoimidazolidin-1-yl)-4,6-bis(trifluoromethyl)phenyl (4-fluorophenyl)(methyl-d3)carbamate]
- half-life at 1 μM [1]: > 180 min
- logP [2]: 3.3

Compound: [2H]C([2H])([2H])N(C(=O)Oc1c(N2CCN(CC(O)CN(C)C)C2=O)cc(C(F)(F)F)cc1C(F)(F)F)c1ccc(F)cc1 (stereo not shown) [RTx-284, 2-{3-[3-(Dimethylamino)-2-hydroxypropyl]-2-oxoimidazolidin-1-yl}-4,6-bis(trifluoromethyl)phenyl N-(4-fluorophenyl)-N-(methyl-d3)-carbamate]
- % Cells, FITC Caspase-3 Negative ([3]; 5 μM): 91%
- % Cells, FITC Caspase-3 Positive ([3]; 5 μM): 10%
- % Cells, FITC Caspase-3 Negative ([3]; 10 μM): 88%
- % Cells, FITC Caspase-3 Positive ([3]; 10 μM): 12%
- killing of HRD versus HR-proficient cell lines [4]: selective killing of multiple HRD cells
- half-life at 1 μM [1]: > 180 min
- logP [2]: 3.7
- synergy with multiple PARPi ([5]; MDA-MB-436 (BRCA1 mutant) and PE01 (BRCA2 mutant) cell lines): strong synergy
- inhibition of other DNA polymerases [6]: no inhibition

Compound: [2H]C([2H])([2H])N(C(=O)Oc1c(N2CCN(C[C@H](O)CN(C)C)C2=O)cc(C(F)(F)F)cc1C(F)(F)F)c1ccc(F)cc1 [RTx-303]
- half-life at 1 μM [7]: 50.6 min
- half-life at 1 μM [8]: 9.9 min
- killing of HRD versus HR-proficient cell lines [4]: selective killing of HRD cells
- Mouse plasma protein binding (% free) [9]: 3.9 % free
- Rat plasma protein binding (% free) [10]: 9.8 % free
- synergistic activity with PARPi ([5]; BRCA mutant cells in vitro, niraparib): synergistic activity
- body weight and health signs at high dose [11]: no significant body weight loss or unhealthy signs
- inhibition of other DNA polymerases [6]: no significant inhibition
- half-life at 1 μM [12]: 13.2 min

Compound: [2H]C([2H])([2H])N(C(=O)Oc1c(N2CCN(C[C@H](O)CNC)C2=O)cc(C(F)(F)F)cc1C(F)(F)F)c1ccc(F)cc1 [RTx-315]
- half-life at 1 μM [7]: 121 min
- half-life at 1 μM [8]: 19.6 min
- Mouse plasma protein binding (% free) [9]: 2.1 % free
- Rat plasma protein binding (% free) [10]: 7.1 % free
- half-life at 1 μM [12]: 31.9 min
